Measurements: patent publication US10519133B2, “Vinyl compounds as FGFR and VEGFR inhibitors” (MEDSHINE DISCOVERY INC., priority 2015, dated 2019)
Like-named read-outs stand apart in the source and are kept apart here.

Key:
FGFR1 = target: T1, FGFR1 (Homo sapiens, UniProt P11362); experiment: Z′-LYTE Detection Kinase Assay, in vitro enzymatic activity; format: biochemical; settings: 0.6 nM FGFR1, 2 uM Tyr4 peptide, 10 uM ATP, 60 min 23° C.
T1 construct: purchased Invitrogen PV4105
Experimental: To measure enzyme activity by Z′-LYTE™ Detection Kinase Assay, and to evaluate the inhibitory effect of the compounds on FGFR1 using IC50 value of the compounds as an indicator. […]
Reaction Buffer: 50 mM Hepes (pH 7.5), 10 mM MgCl2, 1 mM EGTA, 0.01% Brij-35, 1 mM DTT, 2 mM MnCl2 0.6 nM FGFR1, 2 uM Tyr4 peptide and 10 uM ATP in reaction buffer (50 mM Hepes, pH 7.5, 10 mM MgCl2, 0.01% BRIJ-35, 1 mM EGTA, 4 mM MnCl2, 2 mM DTT). a. Diluting the compounds with DMSO to 10 mM, 3-fold dilution, 11 gradients, duplicate wells. b. Diluting the compound by 1:25 into middle plate at Bravo Automatic Liquid Station, then transferring 2.5 ul to the reaction plate to ensure the final DMSO concentration to be 1%. c. Transferring 5 ul of enzyme/substrate buffer into each well d. Using Multidrop Liquid Workstation to sequentially add ATP solution to each well e. Centrifuging at 1000 rpm for 1 minute f. Placing the reaction plate in an incubator at 23° C. to react for 60 min. a. Preparing a 1:128 mixture of Development Regent B and Development Buffer b. Adding 5 ul to each well and centrifuging at 1000 rpm for 1 minute c. Placing the reaction plate in a thermostat (23° C.) after centrifuging for 90 minutes, removing and reading on Envision (Perkin Elmer) Plate Reader
D. Analyzing Data: Analyzing Data Using XLFIT (IDBS) and Calculating IC50 Values for the Compounds.

SNU-16 cell = experiment: CellTiter-Glo Luminescent Cell Viability Assay; format: cell-based; settings: Homo sapiens, 72 h; SNU-16 cells, 3 days; read-out: SNU-16 IC50 (CellTiter-Glo Detection)
Experimental: To detect the change of intracellular ATP by CellTiter-Glo® Luminescent Cell Viability Assay, and to evaluate the inhibitory effect of the compounds on in vitro cell SNU-16 using IC50 value of the compounds as an indicator.
Cell line: SNU-16 cell strain d. Diluting SNU-16 with medium, adding the diluted cells to the 384 plate (Greiner. 781090) (50 μL/well, SNU-16 cell 750 cells/well) with multi-channel pipette. Placing the cell plate in a 37° C., 5% CO2 incubator overnight. […]
g. Diluting the compound with DMSO to 10 mM, 3-fold dilution, 11 gradients, duplicate wells. h. Transferring 2.4 ul of the compound to the middle plate added with 47.6 ul of cell culture media at Bravo Automatic Liquid Station. Then transferring 5 ul to the cell culture plate (55 ul) to ensure the final DMSO concentration to be 0.4%. […]
i. Placing the cell culture plate in 5% CO2 incubator at 37° C. to continue cultivating for 3 days. d. Balancing Cell Titer Glo Reagent to room temperature e. Taking 30 ul of Cell Titer Glo Reagent in a 1:2 ratio into each well and gently mixing for 2 minutes f. Placing the cell culture plate in an incubator (23° C.) for 10 minutes, taking out and centrifuging at 1000 rpm for 1 minute g. Reading on Envision (Perkin Elmer) Plate Reader.
H. Analyzing Data: Analyzing the Data Using XLFIT (IDBS) and Calculating IC50 Values for the Compounds.

[1] = Pharmacokinetics after intravenous and intragastric administration (Experimental Example 4); format: in vivo; settings: female Balb/c nude mice; for bioavailability / AUC(0-t) / Cmax / half-life / clearance / Vd: mouse, plasma; for Cmax: read-out: peak concentration (Cmax); for half-life: read-out: elimination half-life (T1/2) (converted); for clearance: read-out: plasma clearance (CL); for Vd: read-out: steady state apparent volume of distribution (Vdss)
Experimental: Experimental Procedure: A clear solution of the test compound in 20% DMSO/60% PEG400/20% water at 1 mg/ml was injected via the caudal vein into female Balb/c nude mice (fasted overnight, 7-9 weeks of age) with a dose of 1 mg/kg. The test compound suspended in 0.5% Methocel/0.2% Tween 80 at 1 mg/ml was administered by intragastric administration to female Balb/c nude mice (fasted overnight, 7-9 weeks of age) with a dose of 10 mg/kg. About 30 μL of blood collected from the jugular vein or caudal vein at 0.0833, 0.25, 0.5, 1.0, 2.0, 4.0, 8.0 and 24 h after administration in both groups of animals, were placed in anticoagulation tube with EDTA-K2 and the plasma was centrifuged. Plasma concentrations were determined by LC-MS/MS and related pharmacokinetic parameters were calculated using the non-compartmental model linear logarithmic trapezoidal method using WinNonlin™ Version 6.3 (Pharsight, Mountain View, Calif.) pharmacokinetic software.

[2] = po, single intragastric administration 10 mg/kg
[3] = po, single intragastric administration 10 mg/kg, read-out: AUC0-last
[4] = single intravenous injection 1.0 mg/kg, read-out: area under the plasma concentration curve (AUC0-last)
[5] = single intravenous injection 1.0 mg/kg
[6] = single intragastric administration 10 mg/kg

T1 sequence (P11362 22-822): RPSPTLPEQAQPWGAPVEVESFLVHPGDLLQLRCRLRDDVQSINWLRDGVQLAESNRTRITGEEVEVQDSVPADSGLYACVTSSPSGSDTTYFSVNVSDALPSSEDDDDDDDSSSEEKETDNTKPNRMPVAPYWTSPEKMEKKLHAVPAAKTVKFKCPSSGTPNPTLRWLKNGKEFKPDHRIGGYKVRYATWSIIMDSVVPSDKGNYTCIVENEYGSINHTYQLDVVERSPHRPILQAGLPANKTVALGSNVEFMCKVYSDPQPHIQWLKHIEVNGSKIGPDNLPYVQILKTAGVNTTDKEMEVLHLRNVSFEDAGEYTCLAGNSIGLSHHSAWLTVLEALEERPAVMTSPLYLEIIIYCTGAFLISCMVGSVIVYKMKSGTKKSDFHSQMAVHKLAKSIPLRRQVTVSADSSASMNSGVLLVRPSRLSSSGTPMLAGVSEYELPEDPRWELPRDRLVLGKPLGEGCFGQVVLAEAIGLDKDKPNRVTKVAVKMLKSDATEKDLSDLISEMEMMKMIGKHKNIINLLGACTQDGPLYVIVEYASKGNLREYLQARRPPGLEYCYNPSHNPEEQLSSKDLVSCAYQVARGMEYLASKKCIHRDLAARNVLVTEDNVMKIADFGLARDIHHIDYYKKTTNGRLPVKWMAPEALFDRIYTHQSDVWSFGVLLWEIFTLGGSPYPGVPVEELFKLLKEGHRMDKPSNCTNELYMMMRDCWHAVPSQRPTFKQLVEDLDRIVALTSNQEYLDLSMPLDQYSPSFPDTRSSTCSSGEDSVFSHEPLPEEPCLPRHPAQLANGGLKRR

Structure (SMILES)	IC50 (FGFR1) [nM]	IC50 (SNU-16 cell) [nM]	other results
C[C@@H](Oc1ccc2[nH]nc(/C=C(\F)c3ccc(NC4CCOCC4)nc3)c2c1)c1c(Cl)cncc1Cl [Example 45]	50 to 1000	≤ 10	
CC(Oc1ccc2[nH]nc(/C=C/c3cc(F)c(CN4CCOCC4)cc3C#N)c2c1)c1c(Cl)cncc1Cl (stereo not drawn) [Example 62]	50 to 1000	≤ 10	
CC(Oc1ccc2[nH]nc(-c3ccc(NC(=O)CN4CCOCC4)nc3)c2c1)c1c(Cl)cncc1Cl (stereo not drawn) [Example 70]	50 to 1000	≤ 10	
CC1CN(C(=O)c2ccc(-c3n[nH]c4ccc(OC(C)c5c(Cl)cncc5Cl)cc34)cc2)CCN1 (stereo not drawn) [Example 112]	50 to 1000		
CC(Oc1ccc2[nH]nc(-c3ccc(C(=O)N4CCOCC4)cc3)c2c1)c1c(Cl)cncc1Cl (stereo not drawn) [Example 113]	50 to 1000		
CC(Oc1ccc2[nH]nc(-c3ccc(C(=O)N4CCC(O)CC4)cc3)c2c1)c1c(Cl)cncc1Cl (stereo not drawn) [Example 114]	50 to 1000		
CC(Oc1ccc2[nH]nc(-c3ccc(C(=O)N4CCN(C)CC4)cc3)c2c1)c1c(Cl)cncc1Cl (stereo not drawn) [Example 116]	50 to 1000		
CC(Oc1ccc2[nH]nc(-c3ccc(C(=O)N4CCN(C(C)C)CC4)cc3)c2c1)c1c(Cl)cncc1Cl (stereo not drawn) [Example 117]	50 to 1000		
CC(Oc1ccc2[nH]nc(-c3ccc(C(=O)N4CCC(O)C4)cc3)c2c1)c1c(Cl)cncc1Cl (stereo not drawn) [Example 119]	50 to 1000		
CC(=O)N(C)C1CCN(C(=O)c2ccc(-c3n[nH]c4ccc(OC(C)c5c(Cl)cncc5Cl)cc34)cc2)C1 (stereo not drawn) [Example 120]	50 to 1000		
CC(Oc1ccc2[nH]nc(-c3ccc(C(=O)N4CC[C@@H](N(C)C)C4)cc3)c2c1)c1c(Cl)cncc1Cl (stereo partly drawn) [Example 121]	50 to 1000		
CC(Oc1ccc2[nH]nc(-c3ccc(C(=O)NCCN4CCOCC4)cc3)c2c1)c1c(Cl)cncc1Cl (stereo not drawn) [Example 125]	50 to 1000		
CC(Oc1ccc2[nH]nc(-c3ccc(C(=O)N4CCNCC4C)cc3)c2c1)c1c(Cl)cncc1Cl (stereo not drawn) [Example 126]	50 to 1000		
C[C@@H](Oc1ccc2[nH]nc(-c3cccc(C(=O)NC4CCOCC4)c3)c2c1)c1c(Cl)cncc1Cl [Example 127]	50 to 1000		
C[C@@H](Oc1ccc2[nH]nc(-c3cccc(C(=O)N4CC[C@H](O)C4)c3)c2c1)c1c(Cl)cncc1Cl [Example 129]	50 to 1000		
C[C@@H](Oc1ccc2[nH]nc(-c3cccc(C(=O)N4CCC(CO)CC4)c3)c2c1)c1c(Cl)cncc1Cl [Example 130]	50 to 1000		
CC(Oc1ccc2[nH]nc(/C=C(\F)c3ccc(CNC4CCOCC4)nc3)c2c1)c1ccc(F)cc1Cl (stereo not drawn) [Example 143]	50 to 1000		
CC(Oc1ccc2[nH]nc(/C=C(\F)c3ccc(CNC4CCOCC4)nc3)c2c1)c1c(F)cccc1Cl (stereo not drawn) [Example 145]	50 to 1000		
CC(Oc1ccc2[nH]nc(/C=C(\F)c3ccc(CNC4CCOCC4)nc3)c2c1)c1c(F)cccc1F (stereo not drawn) [Example 147]	50 to 1000		
CCN1CCC(C(C)Oc2ccc3[nH]nc(/C=C/c4ccc(CN5CCOCC5)cc4)c3c2)CC1 (stereo not drawn) [Example 148]	50 to 1000		
CC(Oc1ccc2[nH]nc(/C=C/c3ccc(CN4CCOCC4)cc3)c2c1)C1CCN(C)CC1 (stereo not drawn) [Example 149]	50 to 1000		
C[C@@H](Oc1ccc2[nH]nc(/C=C/c3ccc(CNC4CCOCC4)nc3)c2c1)c1c(Cl)cncc1Cl [WX_015, reference compound]			bioavailability [1, 2]: 11.4%; AUC(0-t) [1, 3]: 0.439 ± 0.202 µM·h; Cmax [1, 2]: 134 ± 68.3 nM; AUC(0-t) [1, 4]: 0.386 ± 0.0883 µM·h; half-life [1, 5]: 0.971 ± 0.461 h; clearance [1, 5]: 83.5 ± 18.5 mL/min/kg; Vd [1, 5]: 5.31 ± 0.268 L/kg; peak time [1, 6]: 1.50 ± 0.866 h
C[C@@H](Oc1ccc2[nH]nc(/C=C(\F)c3ccc(CNC4CCOCC4)nc3)c2c1)c1c(Cl)cncc1Cl [WX_018]			bioavailability [1, 2]: 30.1%; AUC(0-t) [1, 3]: 1.65 ± 0.0401 µM·h; Cmax [1, 2]: 479 ± 62.9 nM; AUC(0-t) [1, 4]: 0.567 ± 0.0194 µM·h; half-life [1, 5]: 1.57 ± 0.0286 h; clearance [1, 5]: 53 ± 1.69 mL/min/kg; Vd [1, 5]: 5.45 ± 0.491 L/kg; peak time [1, 6]: 2.00 h

Further lines, with some results ahead:

IC50 (FGFR1) [nM]	IC50 (SNU-16 cell) [nM]	Structure (SMILES)	other results
50 to 1000	10 to 1000	CC(Oc1ccc2[nH]nc(/C(F)=C/c3ccc(CN4CCOCC4)nc3)c2c1)c1c(Cl)cncc1Cl (racemic) [Example 1]	
50 to 1000	≤ 10	C[C@H](Oc1ccc2[nH]nc(/C=C(\F)c3ccc(CNC4CCOCC4)nc3)c2c1)c1c(Cl)cncc1Cl [Example 17]	
≤ 10	≤ 10	C[C@@H](Oc1ccc2[nH]nc(/C=C(\F)c3ccc(CN4CCC(CO)CC4)nc3)c2c1)c1c(Cl)cncc1Cl [Example 21]	
≤ 10	10 to 1000	C[C@@H](Oc1ccc2[nH]nc(/C=C(\F)c3ccc(CN4CCN(CC(=O)O)CC4)nc3)c2c1)c1c(Cl)cncc1Cl [Example 29]	
≤ 10	≤ 10	C[C@@H](Oc1ccc2[nH]nc(/C=C(\F)c3ccc(CN4CCNCC4)nc3)c2c1)c1c(Cl)cncc1Cl [Example 32]	
≤ 10	≤ 10	C[C@@H](Oc1ccc2[nH]nc(/C=C(\F)c3ccc(CN4CCN(C)CC4)nc3)c2c1)c1c(Cl)cncc1Cl [Example 33]	
≤ 10	≤ 10	COC1CCN(Cc2ccc(/C(F)=C/c3n[nH]c4ccc(O[C@H](C)c5c(Cl)cncc5Cl)cc34)cn2)C1 (stereo partly drawn) [Example 34]	
50 to 1000	≤ 10	C[C@@H](Oc1ccc2[nH]nc(/C=C(\F)c3ccc(OCC4CCOCC4)nc3)c2c1)c1c(Cl)cncc1Cl [Example 41]	
≤ 10	≤ 10	C[C@@H](Oc1ccc2[nH]nc(/C=C(\F)c3ccc(NC4CCNCC4)nc3)c2c1)c1c(Cl)cncc1Cl [Example 47]	
10 to 50	≤ 10	CC(Oc1ccc2[nH]nc(/C=C/c3cnc(CN4CCOCC4)cn3)c2c1)c1c(Cl)cncc1Cl (stereo not drawn) [Example 53]	
≤ 10	≤ 10	CC(Oc1ccc2[nH]nc(/C=C/c3ccc(CNC4CCN(C)CC4)cc3)c2c1)c1c(Cl)cncc1Cl (stereo not drawn) [Example 76]	
10 to 50		CC(Oc1ccc2[nH]nc(-c3ccc(C(=O)N4CCC(N(C)C)CC4)cc3)c2c1)c1c(Cl)cncc1Cl (stereo not drawn) [Example 115]	
≤ 10		C[C@@H](Oc1ccc2[nH]nc(/C=C/c3cccc(CNC4CCOCC4)c3)c2c1)c1c(Cl)cncc1Cl [Example 132]	
≤ 10		C[C@@H](Oc1ccc2[nH]nc(/C=C/c3cccc(CN4CCC(O)C4)c3)c2c1)c1c(Cl)cncc1Cl (stereo partly drawn) [Example 134]	
≤ 10		C[C@@H](Oc1ccc2[nH]nc(/C=C/c3cccc(CN4CCC(CO)CC4)c3)c2c1)c1c(Cl)cncc1Cl [Example 135]	
≤ 10		C[C@@H](Oc1ccc2[nH]nc(/C=C/c3ccc(CN4CCOCC4)nc3)c2c1)c1c(Cl)cncc1Cl [Example 137]	
≤ 10		C[C@@H](Oc1ccc2[nH]nc(/C=C/c3ccc(CN4CC[C@H](O)C4)nc3)c2c1)c1c(Cl)cncc1Cl [Example 138]	
10 to 50		C[C@@H](Oc1ccc2[nH]nc(/C=C/c3ccc(CN4CCC(CO)CC4)nc3)c2c1)c1c(Cl)cncc1Cl [Example 140]	
10 to 50		C[C@@H](Oc1ccc2[nH]nc(/C=C(\F)c3ccc(CNC4CCOCC4)nc3)c2c1)c1ccncc1Cl [Example 142]	
≤ 10		CC(Oc1ccc2[nH]nc(/C=C(\F)c3ccc(CNC4CCOCC4)nc3)c2c1)c1cc(F)cc(F)c1 (stereo not drawn) [Example 144]	
≤ 10		CC(Oc1ccc2[nH]nc(/C=C(\F)c3ccc(CNC4CCOCC4)nc3)c2c1)c1c(F)cncc1F (stereo not drawn) [Example 146]	
